Consider one compound from patent US12269902B2, “Peptide compounds and peptide conjugates for the treatment of cancer through receptor-mediated chemotherapy” (TRANSFERT PLUS, S.E.C., priority 2015, dated 2025).

For the assay, the target named is T1, sortilin (Homo sapiens, UniProt Q99523).
T1 construct: Increasing concentrations of a soluble form of sortilin was then injected over the sensor chip
T1 sequence (Q99523 78-755 limits assumed): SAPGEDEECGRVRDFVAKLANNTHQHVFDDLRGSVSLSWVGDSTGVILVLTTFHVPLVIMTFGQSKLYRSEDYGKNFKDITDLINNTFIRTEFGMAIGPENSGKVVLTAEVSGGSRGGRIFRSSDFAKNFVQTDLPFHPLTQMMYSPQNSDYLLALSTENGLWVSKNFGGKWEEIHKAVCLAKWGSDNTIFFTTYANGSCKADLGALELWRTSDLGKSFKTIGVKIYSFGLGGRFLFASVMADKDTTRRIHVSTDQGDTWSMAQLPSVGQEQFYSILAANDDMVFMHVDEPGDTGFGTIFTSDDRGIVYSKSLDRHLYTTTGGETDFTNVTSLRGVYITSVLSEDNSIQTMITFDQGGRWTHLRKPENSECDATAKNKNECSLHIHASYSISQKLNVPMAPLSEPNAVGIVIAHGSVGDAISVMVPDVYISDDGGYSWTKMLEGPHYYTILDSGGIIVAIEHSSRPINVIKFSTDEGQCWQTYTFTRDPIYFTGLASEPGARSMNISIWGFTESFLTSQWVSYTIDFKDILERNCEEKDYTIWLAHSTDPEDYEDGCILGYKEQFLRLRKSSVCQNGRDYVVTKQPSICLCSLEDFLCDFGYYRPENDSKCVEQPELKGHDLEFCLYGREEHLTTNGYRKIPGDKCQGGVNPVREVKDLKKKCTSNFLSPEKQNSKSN
In words: biochemical. The assay is classed as binding. The following applies: read-out: ka. As for the experimental part: Biotinylated Katana peptide was immobilized on a streptavidin sensor chip. A. Soluble sortilin was then injected over the immobilized peptide. The surface plasmon resonance signal was then monitored over time.
Surface plasmon resonance (SPR) was first used to investigate whether these peptides could be recognized by sortilin. For this approach, biotin was added on the C-terminal end of the Katana-Biopharma peptide during peptide synthesis. The biotinylated-peptide (KBP-103) was then immobilized on a streptavidin sensor chip using recommended procedures from the manufacturer. Increasing concentrations of a soluble form of sortilin was then injected over the sensor chip. Interactions between immobilized KBP-103 and the receptor sortilin was then monitored in real time. A representative interaction curve is shown in FIG. 1, and from the sensorgram curves the affinity constant as well as Ka and Kd were determined and are indicated in Table 2. Affinity constants (KD, Ka and […]) were extracted from various injections using the BIA evaluation software.

Residues, ends and D or L forms follow the SMILES beside them. *: point of attachment. Biotin = O=C1N[C@H]2[C@H](CS[C@H]2CCCCC(=O)*)N1

In the case of `CC[C@H](C)[C@H](N)C(=O)N[C@@H](CCCCN)C(=O)N[C@@H](CC(C)C)C(=O)N[C@@H](CO)C(=O)NCC(=O)NCC(=O)N[C@H](C(=O)N[C@@H](CCC(N)=O)C(=O)N[C@@H](C)C(=O)N[C@@H](CCCCN)C(=O)N[C@@H](C)C(=O)NCC(=O)N[C@H](C(=O)N[C@H](C(=O)N[C@@H](CC(N)=O)C(=O)N[C@@H](CCSC)C(=O)N[C@@H](Cc1ccccc1)C(=O)N[C@@H](CCCCN)C(=O)N[C@@H](CO)C(=O)N[C@@H](CCC(=O)O)C(=O)N[C@@H](CO)C(=O)N[C@@H](Cc1ccc(O)cc1)C(=O)N[C@@H](CCCCNC(=O)CCCC[C@@H]1SC[C@@H]2NC(=O)N[C@@H]21)C(=O)O)[C@@H](C)CC)C(C)C)C(C)C` [KBP-103] (H-IKLSGGVQAKAGVINMFKSESYK(Biotin)-OH), the kon amounted to 683000 M⁻¹ s⁻¹.
